In brackets after ≈: the same amount, converted by molar mass. Structures can show the parent of a compound that is named as a salt.
Legend:
[1] = tested on: multidrug-resistant Klebsiella pneumoniae KR15-4 (KPC2); assay: In vivo efficacy in mice systemically infected with multidrug-resistant Klebsiella pneumoniae KR15-4 (KPC2); details: Kunming mice, intraperitoneal infection, drug s.c. 0.5 h and 4 h after infection, deaths over 7 days, Bliss method; for ED50: Klebsiella pneumoniae, read-out: ED50 Subcutaneous injection
Description: 4.1 Test strains: clinically isolated pathogenic multidrug-resistant Klebsiella pneumoniae KR15-4 (KPC2), provided by Sichuan Primed Shines Bio-tech Co., Ltd.
4.2 Test animals: Kunming mice, age: 4 to 5 weeks, weight: 18 to 22 g, half male, half female, SPF grade.
4.3 Test methods: Mice were randomly divided into several groups, 5 mice for each group, half male and half female, and 4 doses for each test drug: 12.5, 25, 50 and 100 mg/kg. The mice were intraperitoneally injected with 0.5 mL of 3.0×10^6 CFU/mL bacterial suspension for each mouse, and subcutaneously injected with the drug at the designed dose 0.5 h and 4 h after infection. The subcutaneous injection volume was 0.2 ml/20 g mouse weight; the number of deaths in mice was observed and recorded for 7 consecutive days. According to the number of deaths in mice, the half effective dose ED50 was calculated according to the Bliss method using the DAS 1.0 software, edited by Sun Ruiyuan et al.

[2] = tested on: Escherichia coli ATCC 35218; assay: MIC, broth microdilution, normal MH medium; assay type: cell-based; details: Escherichia coli, ATCC35218, quality control strain, read-out: Antibacterial activity MIC, Escherichia coli ATCC 35218
Description: (§1) Strain for quality control: Escherichia coli ATCC35218, purchased from National Center of Clinical Laboratory.
(§2) Medium: MH liquid medium (OXOID).
(§3) Culture condition: cells were incubated at 35-37° C. for 16-18 h.
(§4) The broth microdilution method recommended by Clinical and Laboratory Standards Institute (CLSI), Performance Standards for Antimicrobial Susceptibility Testing; Twenty-Third Informational Supplement, M02-All, M07-A9 and M11-A8, 2013 was used to determine the MIC value of each test sample against each test strain in the normal MH medium and iron-deficient MH medium.
(§5) After diluting each sample to different concentrations with normal MH medium, 100 μl of each test sample solution at different concentrations was separately aspirated onto a 96-well sterile polystyrene plate. Drug solutions were added to the 1st to 10th well with the final concentrations of 16, 8, 4, 2, 1, 0.5, 0.25, 0.125, 0.06, and 0.03 mg/L in each well, respectively. The 11th well, as a blank control, was not added with drugs and bacteria. The 12th well, as a bacterial growth control, was added with bacteria but no drug.
(§6) The test bacterial liquid was adjusted to a bacterial suspension of 0.5 Mcfarland standard with physiological saline, and diluted with MH broth at 1:100, and then added to the drug solution so that a final concentration of the bacterial liquid was approximately 10^4 CFU/ml; 100 μl of the bacterial liquid was further added to each of the above wells (the total volume in each well is 200 μl), which was sealed and placed in a 35-37° C. incubator for 18-20 h for testing the result. The OD600 value was measured by a microplate reader, Minimal Inhibitory Concentration (MIC) of a drug is the lowest concentration of the drug which prevents growth of bacteria in the wells. 1.2.2 MIC in iron-deficient MH medium

[3] = tested on: Klebsiella pneumoniae (4 strains); assay: MIC, broth microdilution, normal MH medium; assay type: cell-based; details: for MIC: Klebsiella pneumoniae, multi-drug resistant clinical isolates (KPC2), read-out: Antibacterial activity MIC, Klebsiella pneumoniae (4 strains); for times more effective than BAL30072 in inhibitory activity against Klebsiella pneumoniae: from MIC of Table 2
Description: (§7) Supplier of the strains: all of the above strains were provided by Sichuan Primed Shines Bio-tech Co., Ltd. A single colony was isolated by streaking on agar plates for each strain prior to the experiment, and the cells freshly cultured at 37° C. overnight were appropriately diluted for the experiment.
as §2, §3, §4, §5
The OD600 value was measured by a microplate reader, Minimal Inhibitory Concentration (MIC) of a drug is the lowest concentration of the drug which prevents growth of bacteria in the wells. 1.2.2 MIC in iron-deficient MH medium

[4] = tested on: Acinetobacter baumannii (4 strains); assay: MIC, broth microdilution, normal MH medium; assay type: cell-based; details: Acinetobacter baumannii, read-out: Antibacterial activity MIC, Acinetobacter baumarmii (4 strains)
Description: as §7, §2, §3, §4, §5, §6

[5] = tested on: Escherichia coli (4 strains); assay: MIC, broth microdilution, normal MH medium; assay type: cell-based; details: for MIC: Escherichia coli, clinical isolates (ESBLs), read-out: Antibacterial activity MIC, Escherichia coli (4 strains); for times more effective than BAL30072 in inhibitory activity against Escherichia coli: from MIC of Table 2
Description: as §7, §2, §3, §4, §5, §6

[6] = tested on: Pseudomonas aeruginosa (4 strains); assay: MIC, broth microdilution, normal MH medium; assay type: cell-based; details: Pseudomonas aeruginosa, multidrug-resistant clinical isolates (integrator I, IMP4), read-out: Antibacterial activity MIC, Pseudomonas aeruginosa (4 strains)
Description: as §7, §2, §3, §4, §5, §6

[7] = tested on: Escherichia coli ATCC 35218; assay: MIC, broth microdilution, iron-deficient MH medium; assay type: cell-based; details: Escherichia coli, ATCC35218; iron-deficient MH medium (16 mg/L 2,2'-bipyridine); quality control strain; read-out: Antibacterial activity MIC, Escherichia coli ATCC 35218
Description: as §1, §2, §3, §4
(§8) BPL was added to the normal MH medium to obtain a final concentration of 16 mg/L; According to the method in Section 1.2.1, 100 μl of each test sample solution at different concentrations was aspirated to the 1st to 10th well in a 96-well sterile polystyrene plate to obtain the final drug concentrations of 16, 8, 4, 2, 1, 0.5, 0.25, 0.125, 0.06, and 0.03 mg/L, respectively. Then, 100 μl of the test bacterial liquid was added to each well (200 μl per well), and the final concentration of the bacterial liquid was approximately 10^4 CFU/ml. After sealing, it was placed in a 35-37° C. incubator for 18-20 hours for testing the result. The OD600 value was measured by a microplate reader, Minimal Inhibitory Concentration (MIC) of a drug is the lowest concentration of the drug which prevents growth of bacteria in the wells.

[8] = tested on: Klebsiella pneumoniae (4 strains); assay: MIC, broth microdilution, iron-deficient MH medium; assay type: cell-based; details: for MIC: Klebsiella pneumoniae, iron-deficient MH medium (16 mg/L 2,2'-bipyridine), multi-drug resistant clinical isolates (KPC2), read-out: Antibacterial activity MIC, Klebsiella pneumoniae (4 strains); for times more effective than BAL30072 in inhibitory activity against Klebsiella pneumonia: iron-deficient MH medium, from MIC of Table 3
Description: as §7, §2, §3, §4, §8

[9] = tested on: Acinetobacter baumannii (4 strains); assay: MIC, broth microdilution, iron-deficient MH medium; assay type: cell-based; details: Acinetobacter baumannii; iron-deficient MH medium (16 mg/L 2,2'-bipyridine); multidrug-resistant clinical isolates (integron I, OXA23); read-out: Antibacterial activity MIC, Acinetobacter baumannii (4 strains)
Description: as §7, §2, §3, §4, §8

[10] = tested on: Escherichia coli (4 strains); assay: MIC, broth microdilution, iron-deficient MH medium; assay type: cell-based; details: Escherichia coli; iron-deficient MH medium (16 mg/L 2,2'-bipyridine); clinical isolates (ESBLs); read-out: Antibacterial activity MIC, Escherichia coli (4 strains)
Description: as §7, §2, §3, §4, §8

[11] = tested on: Pseudomonas aeruginosa (4 strains); assay: MIC, broth microdilution, iron-deficient MH medium; assay type: cell-based; details: Pseudomonas aeruginosa; iron-deficient MH medium (16 mg/L 2,2'-bipyridine); multidrug-resistant clinical isolates (integrator I, IMP4); read-out: Antibacterial activity MIC, Pseudomonas aeruginosa (4 strains)
Description: as §7, §2, §3, §4, §8

Row | Structure (SMILES) | ED50 [1] [mg/kg] | ED50 Subcutaneous injection [1] [mg/kg] | MIC [2] [µg/mL] | MIC [3] [µg/mL] | MIC [4] [µg/mL] | MIC [5] [µg/mL] | MIC [6] [µg/mL] | MIC [7] [µg/mL] | MIC [8] [µg/mL] | times more effective than BAL30072 in inhibitory activity against Klebsiella pneumonia [8] | MIC [9] [µg/mL] | MIC [10] [µg/mL] | MIC [11] [µg/mL] | times more effective than BAL30072 in inhibitory activity against Klebsiella pneumoniae [3] | times more effective than BAL30072 in inhibitory activity against Escherichia coli [5]
1 | C[C@@H](O)[C@H]1C(=O)N2C(C(=O)O)=C(S[C@@H]3CN[C@H](C(=O)N(C)C)C3)[C@H](C)[C@H]12 [meropenem, reference compound] | > 100 | >100 | 0.125 (≈ 0.326 µM) | 32 to 64 (≈ 83.4 to 167 µM) | 64 (≈ 167 µM) | 0.25 to 32 (≈ 0.652 to 83.4 µM) | 32 to 64 (≈ 83.4 to 167 µM) | – | – | – | – | – | – | – | –
2 | CC(C)[C@H](O/N=C(\C(=O)N[C@@H]1C(=O)N(OS(=O)(=O)O)C1(C)C)c1csc(N)n1)c1cc(=O)c(O)cn1O [Compound 28, (3S)-3-((Z)-2-(2-aminothiazol-4-yl)-2-(((S)-1-(1,5-dihydroxy-4-oxo-1,4-Dihydropyridin-2-yl)-2-methylisopropyloxy)imine)acetamido)-2,2-dimethyl-4-oxoazetidine-1-hydrogen sulfate] | – | – | – | – | – | – | – | < 0.03 | 1 | 64 times | 1 to 2 | 0.125 to 0.25 | 0.125 to 1 | – | –
3 | C[C@H]1[C@H](NC(=O)/C(=N\OC(C)(C)C(=O)O)c2csc(N)n2)C(=O)N1S(=O)(=O)O [aztreonam, reference compound] | > 100 | >100 | 0.5 (≈ 1.15 µM) | – | – | – | – | – | – | – | – | – | – | – | –
4 | CSCC(O/N=C(\C(=O)N[C@@H]1C(=O)N(OS(=O)(=O)O)C1(C)C)c1csc(N)n1)c1cc(=O)c(O)cn1O (stereo partly drawn) [Compound 16, (3S)-3-((Z)-2-(2-aminothiazol-4-yl)-2-((1-(1,5-dihydroxy-4-oxo-1,4-dihydropyridin-2-yl)-2-(methylthio)ethoxy)imine)acetamido)-2,2-dimethyl-4-oxoazetidine-1-hydrogen sulfate] | – | – | < 0.03 | 0.5 to 1 | 1 to 2 | 0.125 to 0.5 | 0.25 to 2 | < 0.03 | 0.5 to 1 | 64-128 times | 0.5 to 1 | 0.06 to 0.25 | 0.125 to 1 | 64-128 times | 2-8 times
5 | C[C@H](O/N=C(\C(=O)N[C@@H]1C(=O)N(OS(=O)(=O)O)C1(C)C)c1nc(N)sc1Cl)c1cc(=O)c(O)cn1O [Compound 26, (S)-3-((Z)-2-(2-amino-5-chlorothiazol-4-yl)-2-(((S)-1-(1,5-dihydroxy-4-oxo-1,4-dihydropyridin-2-yl)ethoxy)imine)acetamido)-2,2-dimethyl-4-oxoazetidine-1-hydrogen sulfate] | – | – | < 0.03 | 1 to 4 | 1 | 0.25 to 1 | 0.5 to 1 | < 0.03 | 0.5 to 4 | 16-128 times | 0.5 to 1 | 0.03 to 0.25 | 0.25 to 1 | – | –
6 | CC(O/N=C(\C(=O)N[C@@H]1C(=O)N(OS(=O)(=O)O)C1(C)C)c1nc(N)sc1Cl)c1cc(=O)c(O)cn1O (stereo partly drawn) [Compound 22, (3S)-3-((Z)-2-(2-amino-5-chlorothiazol-4-yl)-2-((1-(1,5-dihydroxy-4-oxo-1,4-dihydropyridin-2-yl)ethoxyl)imine)acetamido)-2,2-dimethyl-4-oxoazetidine-1-hydrogen sulfate] | – | – | < 0.03 | 1 | 2 | 0.06 to 0.5 | 0.5 to 2 | < 0.03 | 1 | 64 times | 1 | 0.06 to 0.25 | 0.5 to 1 | 64 times | 4-16 times
7 | CO/N=C(\C(=O)N[C@@H]1C(=O)N2C(C(=O)O)=CCS[C@H]12)c1csc(N)n1 [ceftizoxime sodium, reference compound] | – | – | 0.25 | 32 to 64 | 32 to 64 | 0.5 to 2 | > 64 | – | – | – | – | – | – | – | –
8 | CC(C)[C@H](O/N=C(\C(=O)N[C@@H]1C(=O)N(OS(=O)(=O)O)C1(C)C)c1nc(N)sc1Cl)c1cc(=O)c(O)cn1O [Compound 29, (3S)-3-((Z)-2-(2-amino-5-chlorothiazol-4-yl)-2-(((S)-1-(1,5-dihydroxy-4-oxo-1,4-dihydropyridin-2-yl)-2-methylpropoxy)imine)acetamido)-2,2-dimethyl-4-oxoazetidine-1-hydrogen sulfate] | – | – | < 0.03 | 1 to 4 | 1 to 2 | 1 to 2 | 0.25 to 2 | < 0.03 | 0.25 to 0.5 | 128-256 times | 0.5 to 1 | 0.125 to 1 | 0.06 to 1 | – | –
9 | CC(C)C(O/N=C(\C(=O)N[C@@H]1C(=O)N(OS(=O)(=O)O)C1(C)C)c1nc(N)sc1Cl)c1cc(=O)c(O)cn1O (stereo partly drawn) [Compound 24, (3S)-3-((Z)-2-(2-amino-5-chlorothiazol-4-yl)-2-((1-(1,5-dihydroxy-4-oxo-1,4-dihydropyridin-2-yl)-2-methylpropoxy)imine)acetamido)-2,2-dimethyl-4-oxoazetidine-1-hydrogen sulfate] | – | – | – | – | – | – | – | < 0.03 | 0.125 to 0.5 | 128-512 times | 1 to 2 | 0.06 to 0.25 | 0.25 to 2 | – | –

From patent US10501454B2, “Monocyclic β-lactam-siderophore conjugate, and preparation method and use thereof” (Shanghai Institute of Materia Medica, Chinese Academy of …, priority 2016, dated 2019)
